One may read the IC50 as the concentration at which inhibition is half-maximal.

The record followed here is BindingDB's records for doi:10.1021/jm990205m (University of Michigan, 2000).

The nature of one test: Antiviral activity was tested in cells acutely infected with HIV-1 RT (reverse transcriptase).
Take `CN1N=C(N)c2cn([C@H]3CC[C@@H](CO)O3)c3ncnc1c23`: it took 21 µM to reach half-maximal inhibition (IC50).
The compound `CN1N=C(N)c2cn(C3C=C[C@@H](CO)O3)c3ncnc1c23` (stereo partly specified) [[5-(3-Amino-5-methyl-5H-1,4,5,6,8-pentaaza-acenaphthylen-1-yl)-2,5-dihydro-furan-2-yl]-methanol] came in with an IC50 of 100 µM.
Same read-out and setting: the figure for `C[C@H]1OC(n2cc3c4c(ncnc42)N(C)N=C3N)[C@H](O)[C@@H]1O` (stereo partly specified) is more than 100 µM; for `CN1N=C(N)c2cn(C3C[C@@H](O)[C@@H](CO)O3)c3ncnc1c23` (stereo partly specified) [5-(3-Amino-5-methyl-5H-1,4,5,6,8-pentaaza-acenaphthylen-1-yl)-2-hydroxymethyl-tetrahydro-furan-3-ol] it is more than 100 µM.
`CN1N=C(N)c2cn([C@@H]3O[C@H](CO)C[C@H]3O)c3ncnc1c23`: the concentration for half-maximal inhibition (IC50) is more than 100 µM.

The nature of another test: Antiviral activity was tested in cells acutely infected with HIV-1 Reverse transcriptase.
Regarding `CN1N=C(N)c2cn(C3O[C@H](CO)[C@H]4O[C@H]34)c3ncnc1c23` (stereo partly specified) [[4-(3-Amino-5-methyl-5H-1,4,5,6,8-pentaaza-acenaphthylen-1-yl)-3,6-dioxa-bicyclo[3.1.0]hex-2-yl]-methanol(2',3'-epoxyTCN)], the IC50 was more than 100 µM.
